Source: US9486455B2, “Compounds for modulating TRPV3 function” (HYDRA BIOSCIENCES, INC., priority 2007, dated 2016)
Like-named read-outs stand apart in the source and are kept apart here.

Columns and labels:
rat (r) TRPV3 = molecular target: T1, rat (r) TRPV3 (Rattus norvegicus, UniProt Q4QYD9); assay: Whole-cell patch clamp, rat TRPV3-mediated currents; type: cell-based;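 also: compounds tested at concentrations up to 30 µM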
T1 construct: expressed in transfected cells
T1 sequence (Q4QYD9 1-791): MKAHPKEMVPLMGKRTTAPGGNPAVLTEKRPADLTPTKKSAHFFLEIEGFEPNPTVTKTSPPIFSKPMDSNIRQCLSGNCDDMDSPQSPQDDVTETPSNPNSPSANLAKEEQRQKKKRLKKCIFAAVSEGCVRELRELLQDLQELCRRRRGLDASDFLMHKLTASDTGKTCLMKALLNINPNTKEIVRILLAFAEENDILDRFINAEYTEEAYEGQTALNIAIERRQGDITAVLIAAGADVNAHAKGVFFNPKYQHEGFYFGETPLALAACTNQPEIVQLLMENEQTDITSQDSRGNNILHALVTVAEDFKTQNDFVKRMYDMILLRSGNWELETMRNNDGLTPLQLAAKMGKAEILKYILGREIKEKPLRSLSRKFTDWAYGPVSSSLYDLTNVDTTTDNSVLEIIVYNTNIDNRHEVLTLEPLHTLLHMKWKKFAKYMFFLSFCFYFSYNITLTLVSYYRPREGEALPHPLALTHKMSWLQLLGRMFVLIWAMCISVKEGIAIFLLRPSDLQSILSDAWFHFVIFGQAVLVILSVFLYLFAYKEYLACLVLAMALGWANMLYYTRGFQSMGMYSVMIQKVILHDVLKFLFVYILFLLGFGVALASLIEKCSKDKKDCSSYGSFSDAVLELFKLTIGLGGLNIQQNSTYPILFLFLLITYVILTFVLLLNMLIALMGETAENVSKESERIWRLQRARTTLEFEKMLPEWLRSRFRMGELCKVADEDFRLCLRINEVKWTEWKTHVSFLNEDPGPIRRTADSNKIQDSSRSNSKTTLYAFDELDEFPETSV
Source text: (§1) Whole-cell patch clamp experiments permit the detection of currents through the TRPV3 channel in the cell line described above. A glass electrode is brought into contact with a single cell and the membrane is then ruptured, permitting control of the voltage of the cell membrane and measurement of currents flowing across the membrane using the amplifier attached to the electrode. A perfusion system permits control of the extracellular solution, including the addition of blockers and activators of the current. The current can be activated by heating this solution to 28° C. or warmer or by addition of 20 μM 2-APB to the solution.
(§2) TRPV3 cells were induced 20-48 hours, removed from growth plates, and replated at low density (to attain good single-cell physical separation) on glass coverslips for measurement. In some cases, cells were grown in low density overnight on glass coverslips. Patch clamp recordings were made in the whole-cell mode with a holding potential of −40 mV. Every 5 seconds, a voltage ramp was applied from −120 to +100 mV, 400 ms in duration. Currents elicited were quantified at −80 mV and +80 mV. The internal solution consisted of 140 mM cesium aspartate, 10 mM EGTA, 2.27 mM MgCl2, 1.91 mM CaCl2 and 10 mM HEPES, pH to 7.2 with KOH; with 50 nM calculated free Ca^2+. External solution was Ringer's solution described above. Upon addition of 2-APB or upon heating of the extracellular solution as described above, TRPV3 current was induced only in TRPV3-expressing cells and not in parental HEK293 TREx cells. […] Removal of the stimulus caused most of the current to go away, and inhibitor addition could still inhibit this current. […]
(§3) P1 refers to the Phase 1 current for human (h) and rat (r) TRPV3, and P2 refers to the Phase 2 current for human (h) and rat (r) TRPV3.

human (h) TRPV3 = molecular target: T2, human (h) TRPV3 (Homo sapiens, UniProt Q8NET8); assay: Whole-cell patch clamp, human TRPV3-mediated currents; type: cell-based;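 also: compounds tested at concentrations up to 30 µM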
T2 construct: expressed in transfected cells; host or cells: HEK293/TREx, tetracycline-induced
T2 sequence (Q8NET8 1-790): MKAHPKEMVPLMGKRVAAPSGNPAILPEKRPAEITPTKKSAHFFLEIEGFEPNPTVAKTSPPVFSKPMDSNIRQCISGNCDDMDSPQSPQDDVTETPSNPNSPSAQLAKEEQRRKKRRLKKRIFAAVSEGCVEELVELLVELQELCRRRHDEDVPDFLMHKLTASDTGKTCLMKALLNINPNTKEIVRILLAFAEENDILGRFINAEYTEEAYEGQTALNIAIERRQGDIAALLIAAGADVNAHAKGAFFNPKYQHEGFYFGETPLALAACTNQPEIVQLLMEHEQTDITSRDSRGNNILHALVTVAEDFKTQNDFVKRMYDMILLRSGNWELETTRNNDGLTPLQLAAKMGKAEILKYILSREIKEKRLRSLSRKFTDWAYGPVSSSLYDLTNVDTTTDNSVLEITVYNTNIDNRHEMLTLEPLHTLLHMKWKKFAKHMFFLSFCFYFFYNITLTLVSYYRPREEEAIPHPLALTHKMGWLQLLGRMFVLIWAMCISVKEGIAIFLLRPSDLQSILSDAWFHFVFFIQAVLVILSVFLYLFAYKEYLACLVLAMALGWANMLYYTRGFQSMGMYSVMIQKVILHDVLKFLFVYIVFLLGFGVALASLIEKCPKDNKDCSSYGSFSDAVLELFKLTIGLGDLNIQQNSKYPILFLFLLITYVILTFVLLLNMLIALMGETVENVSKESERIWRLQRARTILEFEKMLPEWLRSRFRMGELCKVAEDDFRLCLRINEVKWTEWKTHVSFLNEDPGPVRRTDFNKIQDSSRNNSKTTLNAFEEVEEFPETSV
Source text: as §1, §2, §3

hERG [1] = molecular target: T3, hERG (Homo sapiens, UniProt Q12809); assay: Ion channel selectivity, hERG channel current
Description: (§4) Compounds of interest can be tested against these channels at concentrations up to 30 μM, and the resulting data can be used to estimate IC50 for inhibition of the activity of these other ion channels.

hERG [2] = molecular target: T3, hERG; assay: in vitro
Description: as §4

TRPV3 channel = molecular target: T4, TRPV3 channel (Homo sapiens, UniProt Q8NET8); assay: High-throughput screening assay: Ca2+ rise after 2-APB activation in HEK293/TREx cells inducibly expressing TRPV3; type: cell-based; conditions: read-out: IC50 for inhibition of TRPV3 activity; Ca2+ flux, Fura-2, 150 μM 2-APB
T4 construct: expressed in transfected cells; host or cells: HEK293/TREx (Invitrogen), tetracycline-induced
T4 sequence (Q8NET8 1-790): T2 sequence (Q8NET8 1-790)
Source text: The assay depends on detection of the rise in intracellular Ca^2+ concentration ([Ca^2+]i) following channel activation in cells inducibly expressing the TRPV3 channel. Ca^2+ rise is quantified with the use of fluorescent Ca^2+ indicators that are loaded into cells and thereafter indicated the [Ca^2+]i. Ca^2+ influx follows activation of the TRPV3 channel. Compounds inhibiting this [Ca^2+]i rise are considered hits for further investigation.
The commercially available HEK293/TREx line (Invitrogen) was stably transfected with a TRPV3 construct and screened by immunostaining to find clones with TRPV3 expression following stimulation with 1 μg/ml tetracycline. Clonal TRPV3-expressing cells were maintained in the growth medium recommended by the manufacturer supplemented with 100 μg/ml hygromycin to promote retention of the TRPV3 construct. After growing to near confluency, cells are plated at a density of ˜25,000 cells/well in 384 well plates in the presence of 1 μg/ml tetracycline, and allowed to grow for 20-30 hrs. A nearly confluent monolayer results. […] These controls defined a screening window, and “hits” were defined as those test compounds inhibiting the fluorescence response by at least 40%.

[3] = Phase 1 inward current, read-out: P1 In (r)
[4] = Phase 1 outward current, read-out: P1 Out (r)
[5] = Phase 2 inward current, read-out: P2 In (r)
[6] = Phase 2 outward current, read-out: P2 Out (r)
[7] = Phase 2 inward current, read-out: P2 In (h)
[8] = Phase 2 outward current, read-out: P2 Out (h)
[9] = Phase 1 inward current, read-out: P1 In (h)
[10] = Phase 1 outward current, read-out: P1 Out (h)

T3 sequence (Q12809 whole entry): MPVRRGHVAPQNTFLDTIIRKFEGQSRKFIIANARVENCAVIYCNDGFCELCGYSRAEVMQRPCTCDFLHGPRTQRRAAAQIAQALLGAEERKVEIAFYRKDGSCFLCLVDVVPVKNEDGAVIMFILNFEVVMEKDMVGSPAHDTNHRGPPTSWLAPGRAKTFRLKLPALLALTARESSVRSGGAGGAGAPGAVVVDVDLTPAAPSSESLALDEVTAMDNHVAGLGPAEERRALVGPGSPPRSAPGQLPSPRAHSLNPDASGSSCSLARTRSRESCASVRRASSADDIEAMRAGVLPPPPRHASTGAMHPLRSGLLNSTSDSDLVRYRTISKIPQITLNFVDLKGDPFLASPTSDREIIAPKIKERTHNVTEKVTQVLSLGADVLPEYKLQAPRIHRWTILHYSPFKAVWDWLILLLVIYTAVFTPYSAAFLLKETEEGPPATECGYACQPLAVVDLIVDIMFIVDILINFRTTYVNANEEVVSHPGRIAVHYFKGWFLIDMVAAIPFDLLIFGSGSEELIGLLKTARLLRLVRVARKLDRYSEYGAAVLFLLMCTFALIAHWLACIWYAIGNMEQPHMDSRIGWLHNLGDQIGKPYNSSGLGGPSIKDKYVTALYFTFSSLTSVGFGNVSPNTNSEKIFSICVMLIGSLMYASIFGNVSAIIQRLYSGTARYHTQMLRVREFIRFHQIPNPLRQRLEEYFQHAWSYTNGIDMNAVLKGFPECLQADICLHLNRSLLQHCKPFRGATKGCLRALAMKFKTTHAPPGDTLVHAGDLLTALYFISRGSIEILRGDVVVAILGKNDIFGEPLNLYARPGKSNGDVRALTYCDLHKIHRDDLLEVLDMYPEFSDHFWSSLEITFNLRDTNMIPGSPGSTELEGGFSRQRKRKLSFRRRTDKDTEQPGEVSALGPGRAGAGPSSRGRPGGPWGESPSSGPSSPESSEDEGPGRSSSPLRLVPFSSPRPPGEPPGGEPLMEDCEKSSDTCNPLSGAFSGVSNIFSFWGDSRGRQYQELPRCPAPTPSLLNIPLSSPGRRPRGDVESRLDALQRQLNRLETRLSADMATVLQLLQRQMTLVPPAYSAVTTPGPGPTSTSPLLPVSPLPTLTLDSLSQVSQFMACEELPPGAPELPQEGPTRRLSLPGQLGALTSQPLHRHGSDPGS

Question: Which IC50 (rat (r) TRPV3; [3]) does the source give for `COc1cccc(C=Cc2nc3cnccc3c(=O)n2-c2c(C)cccc2C)c1O` [Compound 8] here?
Answer: ≤ 500 nM

Question: And the IC50 (rat (r) TRPV3; [4])?
Answer: ≤ 500 nM

Question: And the IC50 (rat (r) TRPV3; [5])?
Answer: ≤ 500 nM

Question: And the IC50 (rat (r) TRPV3; [6])?
Answer: ≤ 500 nM

Question: And the IC50 (human (h) TRPV3; [7])?
Answer: ≤ 500 nM

Question: And the IC50 (human (h) TRPV3; [8])?
Answer: ≤ 500 nM

Question: And the IC50 (hERG [1])?
Answer: ≥ 20000 nM

Question: With `CCOc1cccc(/C=C/c2nc3cnccc3c(=O)n2-c2c(C)cccc2C)c1O` [Compound 11] as the compound, how does the IC50 (rat (r) TRPV3; [3]) read?
Answer: ≤ 500 nM

Question: What about the IC50 (rat (r) TRPV3; [4]) of the same compound?
Answer: ≤ 500 nM

Question: What about the IC50 (human (h) TRPV3; [9]) of the same compound?
Answer: ≤ 500 nM

Question: What about the IC50 (human (h) TRPV3; [10]) of the same compound?
Answer: ≤ 500 nM

Question: And the IC50 (human (h) TRPV3; [7])?
Answer: ≤ 500 nM

Question: And the IC50 (human (h) TRPV3; [8])?
Answer: ≤ 500 nM

Question: What about the IC50 (hERG [1]) of the same compound?
Answer: ≥ 20000 nM

Question: What does the source list for `COc1nccc(/C=C/c2nc3ccccc3c(=O)n2-c2c(C)cccc2C)c1O` [Compound 37]?
Answer: IC50 (rat (r) TRPV3; [3]): ≤ 500 nM; IC50 (rat (r) TRPV3; [4]): ≤ 500 nM; IC50 (rat (r) TRPV3; [5]): ≤ 500 nM; IC50 (rat (r) TRPV3; [6]): ≤ 500 nM; IC50 (hERG [2]): ≥ 20000 nM; IC50 (human (h) TRPV3; [9]): ≤ 500 nM; IC50 (human (h) TRPV3; [10]): ≤ 500 nM; IC50 (human (h) TRPV3; [7]): ≤ 500 nM; IC50 (human (h) TRPV3; [8]): ≤ 500 nM

Question: Which IC50 (TRPV3 channel) does the source give for `Cc1cccc(C)c1-n1c(/C=C/c2cccc3cn[nH]c23)nc2ccccc2c1=O` [Compound 40] here?
Answer: < 5000 nM

Question: With `CCOc1cccc(C=Cc2nc3ccccc3c(=O)n2-c2c(C)cccc2C)c1O` [Compound 49] as the compound, how does the IC50 (rat (r) TRPV3; [3]) read?
Answer: ≤ 500 nM

Question: And the IC50 (rat (r) TRPV3; [4])?
Answer: ≤ 500 nM

Question: And the IC50 (rat (r) TRPV3; [5])?
Answer: ≤ 500 nM

Question: What about the IC50 (rat (r) TRPV3; [6]) of the same compound?
Answer: ≤ 500 nM

Question: What about the IC50 (human (h) TRPV3; [9]) of the same compound?
Answer: ≤ 500 nM

Question: And the IC50 (human (h) TRPV3; [10])?
Answer: ≤ 500 nM

Question: And the IC50 (human (h) TRPV3; [7])?
Answer: ≤ 500 nM

Question: What about the IC50 (human (h) TRPV3; [8]) of the same compound?
Answer: ≤ 500 nM

Question: And the IC50 (hERG [1])?
Answer: ≥ 20000 nM

Question: What does the source list for `CCc1cccc(CC)c1-n1c(/C=C/c2cccc(OC)c2O)nc2ccccc2c1=O` [Compound 50]?
Answer: IC50 (rat (r) TRPV3; [3]): ≤ 500 nM; IC50 (rat (r) TRPV3; [4]): ≤ 500 nM; IC50 (rat (r) TRPV3; [5]): ≤ 500 nM; IC50 (rat (r) TRPV3; [6]): ≤ 500 nM; IC50 (human (h) TRPV3; [9]): ≤ 500 nM; IC50 (human (h) TRPV3; [10]): ≤ 500 nM; IC50 (human (h) TRPV3; [7]): ≤ 500 nM; IC50 (human (h) TRPV3; [8]): ≤ 500 nM; IC50 (hERG [1]): ≥ 20000 nM

Question: With `Cc1cccc(C)c1-n1c(/C=C/c2cccc(OC(F)(F)F)c2O)nc2ccccc2c1=O` [Compound 55] as the compound, how does the IC50 (rat (r) TRPV3; [3]) read?
Answer: ≤ 500 nM

Question: What about the IC50 (rat (r) TRPV3; [4]) of the same compound?
Answer: ≤ 500 nM

Question: What about the IC50 (human (h) TRPV3; [9]) of the same compound?
Answer: ≤ 500 nM

Question: And the IC50 (human (h) TRPV3; [10])?
Answer: ≤ 500 nM

Question: What about the IC50 (human (h) TRPV3; [7]) of the same compound?
Answer: ≤ 500 nM

Question: And the IC50 (human (h) TRPV3; [8])?
Answer: ≤ 500 nM

Question: And the IC50 (hERG [1])?
Answer: ≥ 20000 nM

Question: Which results are given for `COc1cccc(/C=C/c2nc3ccccc3c(=O)n2-c2c(F)cccc2F)c1O` [Compound 56]?
Answer: IC50 (rat (r) TRPV3; [3]): ≤ 500 nM; IC50 (rat (r) TRPV3; [4]): ≤ 500 nM; IC50 (rat (r) TRPV3; [5]): ≤ 500 nM; IC50 (rat (r) TRPV3; [6]): ≤ 500 nM; IC50 (human (h) TRPV3; [9]): ≤ 500 nM; IC50 (human (h) TRPV3; [10]): ≤ 500 nM; IC50 (human (h) TRPV3; [7]): ≤ 500 nM; IC50 (human (h) TRPV3; [8]): ≤ 500 nM

Question: How did the IC50 (rat (r) TRPV3; [3]) turn out when `CCOc1cccc(C=Cc2nc3ccccc3c(=O)n2-c2c(F)cccc2F)c1O` [Compound 57] was run?
Answer: ≤ 500 nM

Question: What about the IC50 (rat (r) TRPV3; [4]) of the same compound?
Answer: ≤ 500 nM

Question: What about the IC50 (human (h) TRPV3; [9]) of the same compound?
Answer: ≤ 500 nM

Question: And the IC50 (human (h) TRPV3; [10])?
Answer: ≤ 500 nM

Question: And the IC50 (human (h) TRPV3; [7])?
Answer: ≤ 500 nM

Question: What about the IC50 (human (h) TRPV3; [8]) of the same compound?
Answer: ≤ 500 nM
